# Legend:
# [1] = test system: Caco-2 cells; experiment: Caco-2 cells treated with MTP and ACAT antagonists, alone or in combination; type: cell-based; set-up: inhibition of cellular esterification of [3H] cholesterol: dose or concentration left out as unconfirmed
# Protocol: Thus, it was hypothesized that MTP (BMS 197636) and ACAT (1 488 17) antagonists would inhibit cellular esterification by independent mechanisms and their effect would be additive. To test this hypothesis, Caco-2 cells were treated with different amounts of these inhibitors, alone or in combination, and the inhibition was compared with cells that were not exposed to any inhibitors (FIG. 9, L-N). Increasing concentrations of BMS 197636 decreased apoB secretion (FIG. 9, L). In contrast, ACAT inhibitor had no effect on apoB secretion. […] ApoAI secretion was resistant to both the inhibitors (FIG. 9, M). […] These inhibitors in combination reduced cholesteryl ester synthesis by 45 +/−4% (FIG. 9, N). Thus, MTP and ACAT act in tandem and facilitate cellular cholesteryl esterification.
# [2] = test system: AC29 cells that do not express MTP but stably express ACAT1 or ACAT2; experiment: Cellular cholesteryl ester synthesis in AC29 cells that do not express MTP; type: cell-based; settings: AC29 cells stably expressing ACAT1 or ACAT2
# Protocol: Next, the effect of these inhibitors on cellular cholesteryl ester synthesis was examined. […] In these cells, MTP inhibitor BMS 197636 had no effect on cellular cholesteryl ester synthesis (FIG. 9, J and K). However, incubation of these cells with ACAT inhibitor 148817 reduced radio-labeled cholesteryl esters by 83-87% (FIG. 9, J, K).
# [3] = Effect of efflux enhancer and cholesterol biosynthesis inhibitor on hepatic mRNA, MTP activity and lipid levels in PBS and pIpC injected animals; type: in vivo; settings: liver of drug administered pIpC injected mice
# From the text: In this Example, total RNA was isolated from the liver of drug administered PBS and pIpC injected mice and used for quantitative RT-PCR of HMG-CoA reductase (FIG. 5, Panel A), ABCA1 (FIG. 5, Panel B), MTP (FIG. 5, Panel C) as well as ARPp0 mRNA. The ratio of candidate gene to ARPp0 in one PBS injected mice was used for normalization. Liver tissues were also used to measure MTP activity (FIG. 5, Panel D). In addition, triglyceride (FIG. 5, Panel E), total (FIG. 5, Panel F), Free (FIG. 5, Panel G) and Esterified (FIG. 5, Panel H) cholesterol levels were measured. (*, p<0.05, **, p<0.01, ***, p<0.001.)
# [4] = Effect of efflux enhancer and cholesterol biosynthesis inhibitor on plasma lipids and liver function enzymes in PBS and pIpC injected animals; type: in vivo, mice; settings: 50 mg/Kg oral gavage every day for 2 weeks; for plasma cholesterol levels / plasma triglyceride levels: MTP gene deleted (pIpC injected) mice
# From the text: In this Example, blood was collected from tail vein of animals on day 1 of the experiment and used to measure plasma lipid and liver function enzyme levels (Day 1, “Control”). Conditional MTP deletion was achieved by injecting pIpC three times in […] mice on alternate days. Control group mice (n=2) received either PBS (open bars) or pIpC (closed bars) injections. […] On day 8, blood was again collected to measure changes in plasma lipid and liver function enzyme levels. Mice were sacrificed on day 16 and plasma samples were then assayed for total cholesterol (A), triglyceride (B), ALT (C) and AST (D) levels. Each measurement was performed in triplicate. The asterisks show statistically significant differences between PBS and pIpC injected mice. (*, p<0.05, **, p<0.01, ***, p<0.001.)
# [5] = test system: liver microsomes
smiles,measurement,setting,value
CCCNC(=O)C1(CCCCN2CCC(N3Cc4ccccc4C3=O)CC2)c2ccccc2-c2ccccc21 [BMS 197636],ApoAI secretion,[1],resistant
same,apoB secretion,"[1]; increasing concentrations, inhibitor alone",decreased
same,inhibition of cellular esterification of [3H] cholesterol,[1]; individually,25 +/−2%
same,cellular cholesteryl ester synthesis,[2],no effect
O=S(=O)(c1ccccc1)N(CC(F)(F)F)c1ccc(C(O)(C(F)(F)F)C(F)(F)F)cc1 [T0901317],increases in hepatic free cholesterol levels in MTP gene deleted animals,[3],reduced
same,plasma cholesterol levels,[4],not significantly altered
same,plasma triglyceride levels,[4],not significantly altered
CCCCCCCCCCCCCCCC(=O)O[C@H]1CC[C@@]2(C)C(=CC[C@H]3[C@@H]4CC[C@H]([C@H](C)CCCC(C)C)[C@@]4(C)CC[C@@H]32)C1 [cholesteryl palmitate],concentration up to which microsomes are enriched with cholesterol (saturation thereafter),"[5]; liver microsomes incubated 30 min, centrifuged",approximately 1.25 μM
same,inhibition of cholesteryl ester synthesis,"[5]; liver microsomes, 0.5 μM cholesteryl palmitate",32%
"CC[C@H](C)C(=O)O[C@H]1C[C@@H](C)C=C2C=C[C@H](C)[C@H](CC[C@@H]3C[C@@H](O)CC(=O)O3)[C@H]21 [lovastatin, Lovastatin]",increases in hepatic free cholesterol levels in MTP gene deleted animals,[3],reduced
same,plasma cholesterol levels,[4],not significantly altered
same,plasma triglyceride levels,[4],not significantly altered
same,increase in plasma ALT levels due to MTP gene deletion,[4]; pIpC injected mice,not seen
same,increase in plasma AST levels due to MTP gene deletion,[4]; pIpC injected mice,not seen
